# What was measured:
# Test in all cases: Kinase panel profiling at 1 µmol/L (mobility shift assay, Carna)
# Type in all cases: biochemical
# Details in all cases: 1 µmol/L of BTK inhibitor
# EPHA4 = biological target: T1, EPHA4 (Homo sapiens, UniProt P54764)
# T1 construct: purchased Carna Biosciences
# EPHB1 = biological target: T2, EPHB1 (Homo sapiens, UniProt P54762)
# T2 construct: purchased Carna Biosciences
# T2 sequence (P54762 18-984): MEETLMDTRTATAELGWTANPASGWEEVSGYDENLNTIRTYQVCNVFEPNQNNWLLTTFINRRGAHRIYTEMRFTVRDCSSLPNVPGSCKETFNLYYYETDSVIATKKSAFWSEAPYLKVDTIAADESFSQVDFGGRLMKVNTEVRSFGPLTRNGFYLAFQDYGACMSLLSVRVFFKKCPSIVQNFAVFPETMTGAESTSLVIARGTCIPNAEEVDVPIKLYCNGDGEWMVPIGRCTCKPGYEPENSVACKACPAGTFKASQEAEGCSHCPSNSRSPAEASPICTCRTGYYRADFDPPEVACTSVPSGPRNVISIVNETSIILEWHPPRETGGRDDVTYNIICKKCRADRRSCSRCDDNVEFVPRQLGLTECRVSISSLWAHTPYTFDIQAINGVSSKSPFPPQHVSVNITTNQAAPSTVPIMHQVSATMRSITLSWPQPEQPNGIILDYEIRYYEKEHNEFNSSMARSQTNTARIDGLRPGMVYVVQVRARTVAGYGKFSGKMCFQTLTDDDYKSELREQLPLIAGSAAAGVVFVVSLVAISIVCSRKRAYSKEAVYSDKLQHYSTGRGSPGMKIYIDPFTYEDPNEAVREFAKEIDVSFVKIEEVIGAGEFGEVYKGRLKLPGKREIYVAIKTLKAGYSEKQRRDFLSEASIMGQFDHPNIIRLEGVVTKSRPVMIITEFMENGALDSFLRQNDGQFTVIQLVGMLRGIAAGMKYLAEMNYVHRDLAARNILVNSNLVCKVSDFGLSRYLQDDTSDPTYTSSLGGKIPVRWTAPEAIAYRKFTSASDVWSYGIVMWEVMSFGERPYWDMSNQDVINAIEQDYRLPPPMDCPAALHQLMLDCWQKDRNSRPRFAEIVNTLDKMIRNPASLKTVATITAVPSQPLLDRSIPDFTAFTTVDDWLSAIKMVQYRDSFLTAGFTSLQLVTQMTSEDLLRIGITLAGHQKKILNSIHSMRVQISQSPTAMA
# CDK6/CycD3 = biological target: T3, CDK6/CycD3 (Homo sapiens, UniProt Q00534)
# T3 construct: purchased Carna Biosciences
# T3 sequence (Q00534 whole entry): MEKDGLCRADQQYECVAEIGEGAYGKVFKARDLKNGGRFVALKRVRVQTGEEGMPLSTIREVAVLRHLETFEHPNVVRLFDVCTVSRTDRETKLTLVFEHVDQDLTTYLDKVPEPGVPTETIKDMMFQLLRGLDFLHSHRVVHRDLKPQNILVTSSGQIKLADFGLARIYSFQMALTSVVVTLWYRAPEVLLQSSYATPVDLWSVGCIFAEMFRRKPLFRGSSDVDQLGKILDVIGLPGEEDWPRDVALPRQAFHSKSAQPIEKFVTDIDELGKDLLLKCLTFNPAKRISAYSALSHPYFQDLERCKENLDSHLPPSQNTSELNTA
# T3 sequence (P30281 whole entry partner): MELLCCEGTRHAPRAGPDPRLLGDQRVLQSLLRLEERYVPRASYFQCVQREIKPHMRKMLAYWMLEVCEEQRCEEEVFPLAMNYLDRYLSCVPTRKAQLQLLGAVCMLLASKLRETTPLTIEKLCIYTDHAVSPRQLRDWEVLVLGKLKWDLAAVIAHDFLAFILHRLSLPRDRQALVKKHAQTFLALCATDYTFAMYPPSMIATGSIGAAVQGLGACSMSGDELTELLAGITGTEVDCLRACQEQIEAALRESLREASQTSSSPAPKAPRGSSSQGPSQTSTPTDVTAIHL
# DAPK1 = biological target: T4, DAPK1 (Homo sapiens, UniProt P53355)
# T4 construct: purchased Carna Biosciences
# T4 sequence (P53355 whole entry): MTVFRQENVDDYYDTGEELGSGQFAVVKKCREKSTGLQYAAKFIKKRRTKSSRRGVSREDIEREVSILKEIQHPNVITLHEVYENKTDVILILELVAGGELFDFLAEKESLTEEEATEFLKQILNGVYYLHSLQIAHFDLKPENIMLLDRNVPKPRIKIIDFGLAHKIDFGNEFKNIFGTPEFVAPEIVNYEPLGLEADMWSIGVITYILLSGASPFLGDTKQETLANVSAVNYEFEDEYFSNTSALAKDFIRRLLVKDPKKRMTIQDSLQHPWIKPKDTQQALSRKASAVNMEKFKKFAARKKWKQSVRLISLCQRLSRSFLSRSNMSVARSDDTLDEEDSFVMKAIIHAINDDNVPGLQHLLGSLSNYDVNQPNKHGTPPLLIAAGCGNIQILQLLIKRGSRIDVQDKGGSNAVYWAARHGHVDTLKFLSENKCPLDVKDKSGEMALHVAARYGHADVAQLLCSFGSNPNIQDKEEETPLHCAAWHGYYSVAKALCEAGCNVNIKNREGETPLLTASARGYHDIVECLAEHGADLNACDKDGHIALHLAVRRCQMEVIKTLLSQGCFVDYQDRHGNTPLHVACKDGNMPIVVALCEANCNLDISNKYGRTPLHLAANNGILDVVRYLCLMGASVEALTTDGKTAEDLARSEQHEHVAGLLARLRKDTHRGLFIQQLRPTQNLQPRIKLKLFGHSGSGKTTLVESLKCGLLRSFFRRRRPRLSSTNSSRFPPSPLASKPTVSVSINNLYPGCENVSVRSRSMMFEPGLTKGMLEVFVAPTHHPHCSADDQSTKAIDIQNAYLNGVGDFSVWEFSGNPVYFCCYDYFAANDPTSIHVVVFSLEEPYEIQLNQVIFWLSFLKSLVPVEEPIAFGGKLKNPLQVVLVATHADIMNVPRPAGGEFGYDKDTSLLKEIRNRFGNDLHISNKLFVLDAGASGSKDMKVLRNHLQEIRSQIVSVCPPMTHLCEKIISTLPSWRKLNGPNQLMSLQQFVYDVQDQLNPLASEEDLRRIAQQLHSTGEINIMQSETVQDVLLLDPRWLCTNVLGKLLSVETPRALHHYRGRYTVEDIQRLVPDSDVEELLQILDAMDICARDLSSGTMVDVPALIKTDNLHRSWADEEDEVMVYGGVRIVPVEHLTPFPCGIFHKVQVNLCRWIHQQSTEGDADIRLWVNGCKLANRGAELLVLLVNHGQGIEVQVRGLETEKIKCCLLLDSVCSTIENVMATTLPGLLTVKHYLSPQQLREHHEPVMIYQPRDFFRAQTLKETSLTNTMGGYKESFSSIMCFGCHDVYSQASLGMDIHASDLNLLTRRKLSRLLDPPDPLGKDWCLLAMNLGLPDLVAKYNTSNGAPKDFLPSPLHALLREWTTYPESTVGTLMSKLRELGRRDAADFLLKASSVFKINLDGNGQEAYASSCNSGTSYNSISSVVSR
# PHKG2 = biological target: T5, PHKG2 (Homo sapiens, UniProt P15735)
# T5 construct: purchased Carna Biosciences
# T5 sequence (P15735 1-406): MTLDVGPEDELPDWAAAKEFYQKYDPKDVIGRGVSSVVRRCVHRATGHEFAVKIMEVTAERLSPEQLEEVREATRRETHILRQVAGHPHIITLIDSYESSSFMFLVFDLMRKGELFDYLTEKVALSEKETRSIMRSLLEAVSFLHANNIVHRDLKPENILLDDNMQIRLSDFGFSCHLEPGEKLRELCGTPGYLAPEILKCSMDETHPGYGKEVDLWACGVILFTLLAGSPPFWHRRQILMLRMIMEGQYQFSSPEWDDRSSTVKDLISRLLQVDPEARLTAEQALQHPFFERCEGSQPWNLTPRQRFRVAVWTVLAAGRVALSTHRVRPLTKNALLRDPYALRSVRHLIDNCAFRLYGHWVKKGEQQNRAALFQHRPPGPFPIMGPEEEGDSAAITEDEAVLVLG
# PLK1 = biological target: T6, PLK1 (Homo sapiens, UniProt P53350)
# T6 construct: purchased Carna Biosciences
# T6 sequence (P53350 whole entry): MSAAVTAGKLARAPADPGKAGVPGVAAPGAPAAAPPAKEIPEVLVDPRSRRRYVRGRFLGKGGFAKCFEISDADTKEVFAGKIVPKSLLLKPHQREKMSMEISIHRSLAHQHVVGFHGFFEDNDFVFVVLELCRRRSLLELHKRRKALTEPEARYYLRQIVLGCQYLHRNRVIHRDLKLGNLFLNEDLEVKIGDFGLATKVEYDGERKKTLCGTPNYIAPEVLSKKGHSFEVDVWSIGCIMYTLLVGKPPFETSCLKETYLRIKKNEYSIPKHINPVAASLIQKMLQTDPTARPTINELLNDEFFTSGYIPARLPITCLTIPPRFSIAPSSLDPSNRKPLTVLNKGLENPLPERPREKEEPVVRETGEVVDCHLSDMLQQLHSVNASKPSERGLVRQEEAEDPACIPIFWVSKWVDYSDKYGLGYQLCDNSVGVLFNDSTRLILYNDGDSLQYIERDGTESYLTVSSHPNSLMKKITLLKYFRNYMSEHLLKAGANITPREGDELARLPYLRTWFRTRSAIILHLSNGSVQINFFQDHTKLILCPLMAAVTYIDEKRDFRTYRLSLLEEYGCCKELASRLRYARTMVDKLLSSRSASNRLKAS
# ROCK2 = biological target: T7, ROCK2 (Homo sapiens, UniProt O75116)
# T7 construct: purchased Carna Biosciences
# T7 sequence (O75116 whole entry): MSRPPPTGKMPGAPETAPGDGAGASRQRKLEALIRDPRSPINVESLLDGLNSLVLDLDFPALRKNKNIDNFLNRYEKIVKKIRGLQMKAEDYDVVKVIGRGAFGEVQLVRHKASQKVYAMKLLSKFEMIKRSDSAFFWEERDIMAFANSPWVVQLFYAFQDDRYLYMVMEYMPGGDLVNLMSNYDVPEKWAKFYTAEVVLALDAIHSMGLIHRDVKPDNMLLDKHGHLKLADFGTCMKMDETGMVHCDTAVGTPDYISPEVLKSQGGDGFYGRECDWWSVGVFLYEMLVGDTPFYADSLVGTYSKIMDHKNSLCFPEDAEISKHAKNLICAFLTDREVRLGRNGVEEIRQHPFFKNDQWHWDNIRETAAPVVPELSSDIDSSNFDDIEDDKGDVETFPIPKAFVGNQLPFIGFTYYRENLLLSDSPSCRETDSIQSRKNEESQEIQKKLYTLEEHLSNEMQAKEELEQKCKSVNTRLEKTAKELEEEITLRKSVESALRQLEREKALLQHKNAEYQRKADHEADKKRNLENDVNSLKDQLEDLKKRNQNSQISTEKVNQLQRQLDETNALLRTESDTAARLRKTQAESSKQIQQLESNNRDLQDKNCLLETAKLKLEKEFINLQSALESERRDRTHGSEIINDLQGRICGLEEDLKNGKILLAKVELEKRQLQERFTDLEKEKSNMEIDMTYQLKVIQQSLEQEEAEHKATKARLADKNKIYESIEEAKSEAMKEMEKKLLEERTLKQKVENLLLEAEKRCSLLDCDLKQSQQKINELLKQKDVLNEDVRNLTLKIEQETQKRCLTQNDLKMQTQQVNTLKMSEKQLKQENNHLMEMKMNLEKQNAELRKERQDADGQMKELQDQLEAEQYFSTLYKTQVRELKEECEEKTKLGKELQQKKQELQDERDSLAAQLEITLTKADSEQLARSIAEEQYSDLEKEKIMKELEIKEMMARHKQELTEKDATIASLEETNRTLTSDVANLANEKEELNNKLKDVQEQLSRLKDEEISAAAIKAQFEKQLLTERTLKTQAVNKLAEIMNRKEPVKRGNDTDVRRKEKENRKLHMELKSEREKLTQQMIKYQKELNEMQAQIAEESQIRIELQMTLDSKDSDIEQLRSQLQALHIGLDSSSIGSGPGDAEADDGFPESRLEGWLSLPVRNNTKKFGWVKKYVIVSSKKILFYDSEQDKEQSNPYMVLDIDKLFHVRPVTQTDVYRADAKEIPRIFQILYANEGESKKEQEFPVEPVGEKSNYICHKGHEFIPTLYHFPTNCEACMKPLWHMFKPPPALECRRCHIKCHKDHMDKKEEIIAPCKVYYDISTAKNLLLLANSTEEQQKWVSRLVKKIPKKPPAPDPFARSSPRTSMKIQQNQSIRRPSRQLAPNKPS
# SGK3 = biological target: T8, SGK3 (Homo sapiens, UniProt Q96BR1)
# T8 construct: purchased Carna Biosciences
# T8 sequence (Q96BR1 1-496): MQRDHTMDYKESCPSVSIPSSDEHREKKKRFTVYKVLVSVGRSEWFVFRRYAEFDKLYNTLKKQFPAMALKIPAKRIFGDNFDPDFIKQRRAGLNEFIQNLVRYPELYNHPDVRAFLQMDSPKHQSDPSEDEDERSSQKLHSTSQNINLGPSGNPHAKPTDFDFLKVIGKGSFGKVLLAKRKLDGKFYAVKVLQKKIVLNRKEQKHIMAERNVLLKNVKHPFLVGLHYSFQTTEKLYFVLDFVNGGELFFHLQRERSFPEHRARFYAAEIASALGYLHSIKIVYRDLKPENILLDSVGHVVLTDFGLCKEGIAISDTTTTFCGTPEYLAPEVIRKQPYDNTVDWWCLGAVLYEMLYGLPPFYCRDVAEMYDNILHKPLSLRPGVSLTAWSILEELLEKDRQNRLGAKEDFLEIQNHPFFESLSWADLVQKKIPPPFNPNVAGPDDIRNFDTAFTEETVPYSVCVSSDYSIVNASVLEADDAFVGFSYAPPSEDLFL
# SRPK1 = biological target: T9, SRPK1 (Homo sapiens, UniProt Q96SB4)
# T9 construct: purchased Carna Biosciences
# SPHK2 = biological target: T10, SPHK2 (Homo sapiens, UniProt Q9NRA0)
# T10 construct: purchased Carna Biosciences
# T10 sequence (Q9NRA0 1-654): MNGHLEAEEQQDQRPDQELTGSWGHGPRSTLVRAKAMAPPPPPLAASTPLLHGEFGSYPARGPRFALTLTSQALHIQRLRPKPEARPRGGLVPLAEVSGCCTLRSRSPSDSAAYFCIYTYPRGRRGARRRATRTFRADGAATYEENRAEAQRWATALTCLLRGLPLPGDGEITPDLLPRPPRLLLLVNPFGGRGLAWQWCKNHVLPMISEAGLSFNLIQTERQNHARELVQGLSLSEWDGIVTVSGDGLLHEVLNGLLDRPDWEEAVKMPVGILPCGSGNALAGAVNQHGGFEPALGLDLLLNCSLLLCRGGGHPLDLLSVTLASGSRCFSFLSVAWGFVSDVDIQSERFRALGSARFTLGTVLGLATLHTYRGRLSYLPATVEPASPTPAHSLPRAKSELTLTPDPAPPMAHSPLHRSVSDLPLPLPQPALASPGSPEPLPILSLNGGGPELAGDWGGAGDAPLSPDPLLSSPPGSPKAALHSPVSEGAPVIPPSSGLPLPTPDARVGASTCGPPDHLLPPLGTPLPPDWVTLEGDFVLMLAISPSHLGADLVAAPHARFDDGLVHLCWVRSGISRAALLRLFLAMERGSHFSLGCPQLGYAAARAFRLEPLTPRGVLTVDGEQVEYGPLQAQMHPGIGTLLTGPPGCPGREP
# T1 sequence (P54764 20-986): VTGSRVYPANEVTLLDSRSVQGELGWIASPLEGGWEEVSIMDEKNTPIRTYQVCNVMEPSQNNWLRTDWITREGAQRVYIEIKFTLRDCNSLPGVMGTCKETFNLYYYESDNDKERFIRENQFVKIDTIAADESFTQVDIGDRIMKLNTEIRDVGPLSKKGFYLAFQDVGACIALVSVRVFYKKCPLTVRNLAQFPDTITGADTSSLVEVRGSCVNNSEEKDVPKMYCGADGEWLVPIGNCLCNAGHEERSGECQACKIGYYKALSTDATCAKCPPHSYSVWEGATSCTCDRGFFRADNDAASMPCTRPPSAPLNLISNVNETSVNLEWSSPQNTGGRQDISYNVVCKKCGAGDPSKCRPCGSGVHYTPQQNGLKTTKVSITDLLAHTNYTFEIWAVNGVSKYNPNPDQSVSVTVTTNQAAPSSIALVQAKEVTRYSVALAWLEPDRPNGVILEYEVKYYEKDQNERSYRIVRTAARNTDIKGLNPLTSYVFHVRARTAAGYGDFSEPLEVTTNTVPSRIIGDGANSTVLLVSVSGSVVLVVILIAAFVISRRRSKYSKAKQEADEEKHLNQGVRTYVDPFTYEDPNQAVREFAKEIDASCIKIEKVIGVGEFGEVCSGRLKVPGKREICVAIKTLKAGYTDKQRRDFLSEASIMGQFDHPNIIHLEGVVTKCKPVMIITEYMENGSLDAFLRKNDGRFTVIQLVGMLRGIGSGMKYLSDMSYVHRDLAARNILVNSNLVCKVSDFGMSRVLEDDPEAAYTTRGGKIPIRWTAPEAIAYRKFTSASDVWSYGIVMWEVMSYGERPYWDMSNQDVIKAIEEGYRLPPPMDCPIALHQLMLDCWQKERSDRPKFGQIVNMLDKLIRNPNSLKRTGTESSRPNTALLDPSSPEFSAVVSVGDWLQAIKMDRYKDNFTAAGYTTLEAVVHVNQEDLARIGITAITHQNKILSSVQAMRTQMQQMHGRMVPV
Compound,Percentage inhibition of kinase enzyme activity (EPHA4) [%],Percentage inhibition of kinase enzyme activity (EPHB1) [%],Percentage inhibition of kinase enzyme activity (CDK6/CycD3) [%],Percentage inhibition of kinase enzyme activity (DAPK1) [%],Percentage inhibition of kinase enzyme activity (PHKG2) [%],Percentage inhibition of kinase enzyme activity (PLK1) [%],Percentage inhibition of kinase enzyme activity (ROCK2) [%],Percentage inhibition of kinase enzyme activity (SGK3) [%],Percentage inhibition of kinase enzyme activity (SRPK1) [%],Percentage inhibition of kinase enzyme activity (SPHK2) [%]
CC#CC(=O)N1CCC[C@H]1c1nc(-c2ccc(C(=O)Nc3ccccn3)cc2)c2c(N)nccn12 [acalabrutinib],-3.03,-1.40,2.94,-17.45,0.00605,-2.57,-2.29,-11.85,-4.73,6.90
COc1ccc(F)cc1C(=O)NCc1ccc(-c2nn([C@@H](C)C(F)(F)F)c(N)c2C(N)=O)cc1 [pirtobrutinib],9.50,2.51,-5.97,-0.51,7.27,1.53,1.18,-2.68,8.97,-12.42
C=CC(=O)N1CCC[C@@H](n2nc(-c3ccc(Oc4ccccc4)cc3)c3c(N)ncnc32)C1 [ibrutinib],12.63,11.81,4.32,-3.80,0.82,-2.28,3.74,0.58,1.20,9.66
O=C(c1ccc(Oc2ccccc2)cc1Cl)c1c[nH]c2ncnc(N[C@@H]3CC[C@@H](CO)OC3)c12 [nemtabrutinib],82.34,63.64,0.23,-7.44,5.39,1.28,15.55,-3.28,6.73,1.97
C=CC(=O)N1CCC([C@@H]2CCNc3c(C(N)=O)c(-c4ccc(Oc5ccccc5)cc4)nn32)CC1 [zanubrutinib],0.04,-1.07,,,,,,,,
